Values joined by “and” are separate entries in the source; they are usually repeats but may differ in a detail not shown here. Equal values may be shown once. “Also recorded” adds a separate entry of the source. Peptide text beside a SMILES is read from it.

For one experiment, the target named is T1, GABAB receptor (Rattus norvegicus, UniProt O88871+Q9Z0U4).
T1 construct: GABAB receptor-mediated hyperpolarizing responses to baclofen in rat neocortical slices (Kerr, 2003); host or cells: rat neocortical slices (tissue, endogenous receptor)
The note with it: rat neocortical slices; cited from earlier work.

Experiment [1] relates to presynaptic terminals of cultured hippocampal neurons. The experiment can be described thus: TBS-induced presynaptic plasticity measured by FM 1-43 dye uptake in hippocampal cultures. Type of experiment: cell-based, rat. The following applies: for TBS-induced potentiation / plasticity after prolonged treatment: 48 hours of incubation.
The subject of experiment [2] is postsynaptic locations of cultured hippocampal neurons. The experiment can be described thus: postsynaptic evoked current response to iontophoretic glutamate (AMPA-R insertion). Type of experiment: cell-based, rat. The note with it: Mg^++-treated culture; reversed by washout. The source says:
These were generally as described in the preceding examples. Glutamatergic iontophoresis was perfomed as described [Murnick 2000].
Since we wished to correlate the above pre-synaptic findings to the plasticity of single or small clusters of postsynaptic locations, this ruled out traditional double-patch plasticity experiments in which heterogeneous populations of connections are studied. Such studies also usually confound pre-synaptic and postsynaptic effects. For this purpose, we developed a technique of high-temporal and spatial resolution glutamatergic iontophoresis that allows us to stimulate single or small clusters of postsynaptic locations (resolution ˜2 μm, 1 ms; [Murnick 2000]).
To determine whether a decrease in overall activity of a neural network leads to increased plasticity (i.e., an increase in synaptic strength in response to a pattern of stimulation) of postsynaptic locations, we assessed the effect of treatment with Mg^++ on the ability of postsynaptic locations to respond to glutamate. As described above, Mg^++ blocks the NMDA receptor channel at resting membrane potential, so Mg^++ treatment reduces the overall activity level of the neural network. As also described above, increases in postsynaptic intracellular Ca^++ stimulated by activation of NMDA receptors leads to recruitment of AMPA receptors and their insertion into the postsynaptic membrane. […]

The subject of experiment [3] is excitatory and inhibitory terminals. The note with it: short treatment (2-24 hr).
In experiment [4] the target is NMDA receptors (NR2B-containing) (Rattus norvegicus, UniProt P35439+Q00960). The experiment can be described thus: evoked NMDA currents ([…]), double-perforated patch. Type of experiment: cell-based. The method, then: (§1) Electrophysiology. Dual whole cell perforated patch clamp recordings were made on two interconnected cultured hippocampal pyramidal neurons. Perforated patch pipettes were front-filled with a solution containing (in mM): CsOH, 127; D-gluconic acid, 127; CsCl, 4; HEPES, 10; NaCl, 8; EGTA, 0.4; pH was adjusted to 7.25 with CsOH, and then back-filled with the same solution containing […] amphotericin B (Sigma, St. Louis, Mo.). Extracellular solution contained (in mM): NaCl, 145; KCl, 3; glucose, 15; HEPES, 10; MgCl2, 0.8-1.2; CaCl2, 1.2; 0.005 glycine (Sigma), 0.05 picrotoxin (Sigma); pH adjusted to 7.4 with NaOH. MgCl2 concentration was matched to its concentration in culture medium. In experiments where effects of drugs on neuronal activity were quantified (FIG. 4D), recordings were done in culture medium (with HEPES replacing bicarbonate/CO2 to maintain pH). All experiments were performed at room temperature. For assaying synaptic connectivity, each neuron was stimulated by 1 ms step depolarization from −70 to +30 mV in voltage-clamp mode. Only neurons with monosynaptic connections were used. […] Recordings with access resistance>20 MΩ or that varied substantially were rejected from analysis.
We hypothesized that one target may be the number and properties of NMDA receptors at individual synapses.

Experiment [5] deals with cultured hippocampal neurons. The experiment can be described thus: control recordings of membrane potential, synaptic inputs and firing. In kind it is cell-based, rat. The note with it: treatments of FIG. 5D. The method, then:
as §1

The subject of experiment [6] is structural synaptic terminals. The experiment can be described thus: FM dye uptake of structural synaptic terminals, 30 AP protocol. In kind it is cell-based, rat. The note with it: 100 ng/ml BDNF. As for the experimental part: FM 1-43 Loading and Destaining. Functional presynaptic boutons were stained with 10 μM FM 1-43 (synaptogreen, Biotium) by eliciting 30 APs at 0.5-1 Hz. This loading protocol was chosen to avoid short-term plasticity and “re-use” of vesicles through “kiss-run” mode of exocytosis (Aravanis et al., 2003). The neurons were stimulated to fire action potentials by passing 1 ms 50 mA current through platinum electrodes placed at a distance of 7 mm from both sides of the chamber. To ensure reliable action potential initiation, the current amplitude was chosen to be 50% above the threshold for action potential generation, as confirmed by whole-cell patch clamp recording. To prevent recurrent activity, excitatory postsynaptic responses were blocked completely by the addition of DL-AP5 (50 μM, Sigma) and NBQX (10 μM, Sigma) during FM loading and unloading procedures. […]
To further determine the number of these very low Pr terminals and their proportion to the whole population of functional synaptic terminals, we compared the co-localization of FM puncta obtained for the 30 AP loading with puncta obtained using fluorescent antibodies against specific presynaptic proteins. […] Twenty percent more functional synapses were detected by this procedure, also consistent with a previous report (Murthy et al., 1997). […]

Chain of NMDA receptors (NR2B-containing) (Q00960 27-1482, other chains not shown): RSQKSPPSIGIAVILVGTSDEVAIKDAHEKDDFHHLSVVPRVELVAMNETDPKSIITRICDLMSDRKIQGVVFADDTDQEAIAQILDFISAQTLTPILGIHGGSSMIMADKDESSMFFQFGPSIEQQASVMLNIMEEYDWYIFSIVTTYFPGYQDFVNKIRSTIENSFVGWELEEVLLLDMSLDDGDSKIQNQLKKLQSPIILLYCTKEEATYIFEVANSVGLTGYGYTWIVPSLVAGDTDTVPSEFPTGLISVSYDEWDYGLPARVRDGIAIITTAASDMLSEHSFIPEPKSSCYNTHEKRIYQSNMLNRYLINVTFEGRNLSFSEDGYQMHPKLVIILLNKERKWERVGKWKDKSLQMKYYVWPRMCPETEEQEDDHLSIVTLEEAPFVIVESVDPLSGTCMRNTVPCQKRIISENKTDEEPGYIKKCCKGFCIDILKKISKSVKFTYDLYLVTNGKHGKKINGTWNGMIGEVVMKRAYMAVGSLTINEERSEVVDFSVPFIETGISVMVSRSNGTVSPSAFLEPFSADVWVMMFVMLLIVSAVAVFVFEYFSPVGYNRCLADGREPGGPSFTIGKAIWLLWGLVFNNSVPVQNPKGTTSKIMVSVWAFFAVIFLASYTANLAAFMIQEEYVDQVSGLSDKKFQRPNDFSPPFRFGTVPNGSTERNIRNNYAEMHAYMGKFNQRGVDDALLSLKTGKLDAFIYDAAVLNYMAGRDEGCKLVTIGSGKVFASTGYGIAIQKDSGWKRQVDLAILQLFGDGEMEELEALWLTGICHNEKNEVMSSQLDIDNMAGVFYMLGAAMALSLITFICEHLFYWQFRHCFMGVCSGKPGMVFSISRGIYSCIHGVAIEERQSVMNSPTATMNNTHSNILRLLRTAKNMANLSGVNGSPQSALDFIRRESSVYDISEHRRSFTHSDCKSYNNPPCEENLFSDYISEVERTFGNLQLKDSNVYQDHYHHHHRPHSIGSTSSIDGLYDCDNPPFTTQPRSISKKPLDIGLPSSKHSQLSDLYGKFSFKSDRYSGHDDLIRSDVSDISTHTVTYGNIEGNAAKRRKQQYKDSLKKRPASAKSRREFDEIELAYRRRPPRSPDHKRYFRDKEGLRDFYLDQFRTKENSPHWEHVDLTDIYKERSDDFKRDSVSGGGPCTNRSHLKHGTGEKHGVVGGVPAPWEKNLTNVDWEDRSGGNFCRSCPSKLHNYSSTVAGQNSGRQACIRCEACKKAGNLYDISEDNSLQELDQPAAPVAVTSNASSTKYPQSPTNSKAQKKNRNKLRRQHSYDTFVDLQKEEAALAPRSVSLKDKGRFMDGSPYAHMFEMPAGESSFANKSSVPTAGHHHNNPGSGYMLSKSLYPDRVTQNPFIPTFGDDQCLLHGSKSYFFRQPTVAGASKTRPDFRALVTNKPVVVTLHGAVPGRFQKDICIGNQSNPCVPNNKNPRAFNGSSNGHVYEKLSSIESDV
T1 sequence (O88871 41-940): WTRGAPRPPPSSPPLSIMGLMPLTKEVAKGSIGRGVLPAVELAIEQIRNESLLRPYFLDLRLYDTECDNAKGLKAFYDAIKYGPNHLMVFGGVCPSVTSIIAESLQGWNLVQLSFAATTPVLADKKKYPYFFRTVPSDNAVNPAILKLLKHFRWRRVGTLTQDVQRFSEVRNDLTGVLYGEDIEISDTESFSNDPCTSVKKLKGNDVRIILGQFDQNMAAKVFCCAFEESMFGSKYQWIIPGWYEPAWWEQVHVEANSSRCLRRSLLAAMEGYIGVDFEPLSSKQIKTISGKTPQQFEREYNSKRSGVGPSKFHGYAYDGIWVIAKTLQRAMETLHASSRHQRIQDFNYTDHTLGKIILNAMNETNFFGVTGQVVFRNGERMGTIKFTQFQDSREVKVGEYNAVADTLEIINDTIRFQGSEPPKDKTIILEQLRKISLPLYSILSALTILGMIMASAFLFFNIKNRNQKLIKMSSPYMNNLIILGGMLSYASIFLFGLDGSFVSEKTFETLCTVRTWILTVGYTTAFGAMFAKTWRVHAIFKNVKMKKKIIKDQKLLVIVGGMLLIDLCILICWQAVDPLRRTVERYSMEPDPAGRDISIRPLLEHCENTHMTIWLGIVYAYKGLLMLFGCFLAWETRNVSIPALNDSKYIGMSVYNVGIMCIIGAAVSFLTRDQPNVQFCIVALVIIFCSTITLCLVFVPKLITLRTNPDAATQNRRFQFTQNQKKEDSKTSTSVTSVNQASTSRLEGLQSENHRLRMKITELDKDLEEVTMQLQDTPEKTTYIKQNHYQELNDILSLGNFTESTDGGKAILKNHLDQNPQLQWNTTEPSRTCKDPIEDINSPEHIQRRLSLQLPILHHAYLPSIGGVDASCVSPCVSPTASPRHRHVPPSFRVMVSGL
T1 sequence (Q9Z0U4 17-960): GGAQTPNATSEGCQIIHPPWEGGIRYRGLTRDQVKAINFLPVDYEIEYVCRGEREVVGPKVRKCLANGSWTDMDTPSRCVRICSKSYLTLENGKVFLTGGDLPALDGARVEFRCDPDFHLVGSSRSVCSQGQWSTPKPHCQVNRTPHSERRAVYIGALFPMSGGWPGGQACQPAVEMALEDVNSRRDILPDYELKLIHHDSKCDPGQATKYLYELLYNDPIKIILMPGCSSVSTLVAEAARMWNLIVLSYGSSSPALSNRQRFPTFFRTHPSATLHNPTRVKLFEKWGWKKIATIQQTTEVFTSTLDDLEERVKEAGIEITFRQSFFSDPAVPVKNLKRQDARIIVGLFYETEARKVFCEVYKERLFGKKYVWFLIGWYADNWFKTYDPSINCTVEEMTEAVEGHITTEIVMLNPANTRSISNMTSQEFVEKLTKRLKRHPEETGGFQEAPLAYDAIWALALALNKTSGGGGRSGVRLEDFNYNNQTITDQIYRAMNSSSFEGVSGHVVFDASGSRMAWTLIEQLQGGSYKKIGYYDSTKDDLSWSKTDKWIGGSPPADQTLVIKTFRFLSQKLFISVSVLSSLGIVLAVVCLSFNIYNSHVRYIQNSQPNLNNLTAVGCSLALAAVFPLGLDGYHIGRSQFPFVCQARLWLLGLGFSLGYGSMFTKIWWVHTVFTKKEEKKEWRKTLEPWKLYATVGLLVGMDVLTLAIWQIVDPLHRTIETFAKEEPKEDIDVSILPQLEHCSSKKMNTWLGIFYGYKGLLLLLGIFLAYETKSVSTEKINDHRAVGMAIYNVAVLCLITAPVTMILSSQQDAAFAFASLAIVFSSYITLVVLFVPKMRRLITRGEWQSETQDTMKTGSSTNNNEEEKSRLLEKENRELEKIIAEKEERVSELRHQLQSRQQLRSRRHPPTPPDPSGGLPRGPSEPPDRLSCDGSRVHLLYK

Regarding `N[C@@H](Cc1ccccc1)C(=O)O` [L-Phe], the “potency as potentiator of GABAB receptor-mediated hyperpolarizing responses to baclofen” value (“potency as potentiator” for short) at GABAB receptor was “Most potent”.
Turning to D-AP5 [reference compound], in experiment [1], the “theta-burst-induced changes of Pr (F2/F1, N2/N1, S2/S1) in presence of NMDAR blocker” value is reported as “No detectable changes of Pr”. For the same molecule, in experiment [2], the “effect of NMDA antagonist on the increase in postsynaptic current” value is reported as “blocked it”.
For the molecule `N[C@@H](Cc1ccccc1)C(=O)N[C@@H](Cc1ccccc1)C(=O)O` [L-Phe-Phe] (H-Phe-Phe-OH), the “potency as potentiator” value on GABAB receptor is “Most potent”.
As for `N[C@@H](CO)C(=O)O` [L-Ser], the “potency as potentiator” value at GABAB receptor is given as “less potent”.
Consider `N[C@@H](Cc1ccc(O)cc1)C(=O)O` [L-Tyr], for which, on GABAB receptor, the “potency as potentiator” value is recorded as “less potent”.
Take `N[C@@H](CSSC[C@H](N)C(=O)O)C(=O)O` [L-Cystine]: the “potency as potentiator” value at GABAB receptor is listed as “less potent”.
`CSCC[C@H](N)C(=O)O` [L-Met]: the “potency as potentiator” value on GABAB receptor was “less potent”.
As for `NS(=O)(=O)c1cccc2c1c([N+](=O)[O-])cc1nc(O)c(O)nc12` [NBQX, reference compound], the “change of synaptic density” value in experiment [3] was “No short treatment (2-24 hr, baclofen, nimodepine, NBQX, and TTX) produced a significant change of synaptic density”. Further, the “TBS-induced potentiation / plasticity after prolonged treatment” value in experiment [1] is “no significant TBS-induced potentiation; also recorded: lose plasticity”.
Turning to `CC(C)C[C@H](NC(=O)[C@@H](N)Cc1ccccc1)C(=O)O` [L-Phe-Leu] (H-Phe-Leu-OH), at GABAB receptor, the “potency as potentiator” value was “Most potent”.
`CN1C(=O)CN=C(c2ccccc2F)c2cc([N+](=O)[O-])ccc21` [flunitrazepam, reference compound]: in experiment [1], the “TBS-induced potentiation / plasticity after prolonged treatment” value is given as “no significant TBS-induced potentiation; also recorded: lose plasticity”.
`CC(C(O)c1ccc(O)cc1)N1CCC(Cc2ccccc2)CC1` (stereo not drawn) [ifenprodil]: in experiment [4], the reduction of current is on record as 53%; the “reduction of total charge transfer” value is 85% and 45%; the “reduction of total charge transfer of EPSCNMDA” value is 80% and 45% and 45±2%. Further, the “reduction of TBS-induced presynaptic potentiation” value in experiment [1] (1 μM ifenprodil, 1.2 mM Mg^2+ cultures) was 50% and 48±7%.
For `[Zn+2]` [Zn^++], the “change in average firing rates of neurons within cultured neural networks” value in experiment [5] is given as “none of these treatments induces a significant change”. Moreover, the “plasticity of presynaptic terminals after partial block of Ca flux” value in experiment [1] (0.4 mM Mg^++ added or 5 mM Zn^++ two weeks, 10 mM nimodipine 2 days) was “significant increases of plasticity”. Moreover, the “optimal concentration for plasticity (maximal potentiability)” value in experiment [1] (2 weeks treatment) came to 2 mM. In addition, the “increase of synaptic strength at optimum concentration” value in experiment [1] (FIGS. 6H-6J) was “up to approximately five-fold”.
Take `CC(C)[C@H](N)C(=O)O` [L-Val]: on GABAB receptor, the “potency as potentiator” value is given as “less potent”.
As to L-Ile, the “potency as potentiator” value at GABAB receptor is given as “Most potent”.
Consider `CC(C)C[C@H](N)C(=O)O` [L-Leu], for which the “potency as potentiator” value on GABAB receptor is “Most potent”.
Consider `N=C(N)NCCC[C@H](N)C(=O)O` [L-Arg], for which the “potency as potentiator” value on GABAB receptor was “less potent”.
Take `C[C@@H](O)[C@H](N)C(=O)O` [L-Thr]: at GABAB receptor, the “potency as potentiator” value is given as “less potent”.
As to `N[C@@H](CS)C(=O)O` [L-Cys], the “potency as potentiator” value at GABAB receptor is on record as “less potent”.

B1: BDNF: neurotrophin known to increase the Pr of synaptic terminals (protein, UniProt P23560 19-247, looked up)
Neurotrophic factor BDNF …: APMKEANIRGQGGLAYPGVRTHGTLESVNGPKAGSRGLTSLADTFEHVIEELLDEDQKVRPNEENNKDADLYTSRVMLSSQVPLEPPLLFLLEEYKNYLDAANMSMRVRRHSDPARRGELSVCDSISEWVTAADKKTAVDMSGGTVTVLEKVPVSKGQLKQYFYETKCNPMGYTKEGCRGIDKRHWNSQCRTTQSYVRALTMDSKKRIGWRFIRIDTSCVCTLTIKRGR
With B1, the “FM dye uptake by structural synaptic terminals” value in experiment [6] is on record as “all structural synaptic terminals became capable of taking up FM dye”.

Values taken from patent US20060089335A1, “Compositions and methods for enhancing cognitive function and synaptic plasticity” (priority 2003, published 2006).
